Measured values from article PMC12058161, “The plant matrix of Artemisia annua L. for the treatment of malaria: Pharmacodynamic and pharmacokinetic studies” (PLOS One, 2025).
Where “and” joins values, the source holds several entries; their conditions need not be identical. Identical values can stand only once.

Key:
[1] = target: T1, P-glycoprotein (P-gp) (Homo sapiens, UniProt P08183); experiment: Rhodamine 123 (P-gp substrate) transport across drug-treated Caco-2 cell monolayers; format: cell-based; settings: co-incubated with R123, 10 μM, Caco-2 monolayer, Fig 6
T1 construct: The transport of R123 in normal Caco-2 cell monolayers or drug-treated Caco-2 cell monolayers was further studied; host or cells: Caco-2
T1 sequence (P08183 whole entry): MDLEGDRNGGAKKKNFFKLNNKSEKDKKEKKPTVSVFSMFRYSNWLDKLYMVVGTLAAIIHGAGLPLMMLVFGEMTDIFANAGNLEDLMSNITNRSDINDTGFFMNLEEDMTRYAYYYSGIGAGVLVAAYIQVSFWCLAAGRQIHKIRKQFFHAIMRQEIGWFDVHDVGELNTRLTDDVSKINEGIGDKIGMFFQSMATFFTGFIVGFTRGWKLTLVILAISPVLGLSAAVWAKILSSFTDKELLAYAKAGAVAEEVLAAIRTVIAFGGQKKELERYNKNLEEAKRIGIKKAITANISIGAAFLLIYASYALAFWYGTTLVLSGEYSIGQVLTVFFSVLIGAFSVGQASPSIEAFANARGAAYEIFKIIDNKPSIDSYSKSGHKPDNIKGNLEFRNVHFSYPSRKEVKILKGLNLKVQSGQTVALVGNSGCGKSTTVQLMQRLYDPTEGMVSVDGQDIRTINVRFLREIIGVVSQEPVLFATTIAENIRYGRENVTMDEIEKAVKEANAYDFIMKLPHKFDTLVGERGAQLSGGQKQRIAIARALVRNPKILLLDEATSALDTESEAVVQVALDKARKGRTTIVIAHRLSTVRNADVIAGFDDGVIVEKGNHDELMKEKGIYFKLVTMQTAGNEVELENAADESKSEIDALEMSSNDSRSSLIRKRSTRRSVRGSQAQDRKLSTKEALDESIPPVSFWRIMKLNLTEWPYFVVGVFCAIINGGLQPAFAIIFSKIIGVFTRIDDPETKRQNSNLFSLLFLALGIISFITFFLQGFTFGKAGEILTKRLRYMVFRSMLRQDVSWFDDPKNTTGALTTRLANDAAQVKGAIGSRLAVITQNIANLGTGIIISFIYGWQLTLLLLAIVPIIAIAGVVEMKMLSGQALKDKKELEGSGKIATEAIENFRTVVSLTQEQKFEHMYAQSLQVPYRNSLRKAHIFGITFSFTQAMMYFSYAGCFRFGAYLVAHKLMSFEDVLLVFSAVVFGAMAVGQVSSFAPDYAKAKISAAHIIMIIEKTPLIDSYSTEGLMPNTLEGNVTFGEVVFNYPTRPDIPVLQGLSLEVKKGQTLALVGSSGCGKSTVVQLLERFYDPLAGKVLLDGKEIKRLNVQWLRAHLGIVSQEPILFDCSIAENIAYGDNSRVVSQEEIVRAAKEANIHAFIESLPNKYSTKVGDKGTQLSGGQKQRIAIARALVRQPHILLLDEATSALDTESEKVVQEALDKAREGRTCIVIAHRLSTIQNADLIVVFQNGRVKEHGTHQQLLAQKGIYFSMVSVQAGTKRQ
Source text: The human epithelial cell line Caco-2 serves as a widely recognized model for the intestinal epithelial barrier, frequently utilized in the assessment of drug absorption and transport mechanisms. In this study, we evaluated drug absorption and distribution in vitro with the help of the Caco-2 cell model. Caco-2 cells were purchased from the Chinese Academy of Medical Sciences (Beijing, China, Resource No. 3111C0001CCC000100). The cells were resuscitated and inserted into culture flasks. Caco-2 cells were passaged with DMEM high glucose medium containing 10% (V/V) FBS, 1% (V/V) non-essential amino acid solution and 100 U/mL penicillin-streptomycin double antibiotic solution, and cultured at 37°C in a 5% CO2 incubator. […] The integrity of the cell monolayer was checked by measuring the transmembrane electrical resistance (TEER) of the monolayer cells with a Millicell-ERS electrode (Millipore Corp., Billerica, MA, USA). Caco-2 cells were used for transport experiments 17–21 days after inoculation. Besides, only monolayers with TEER values above 400 Ω/cm^2 were used in the study.
The transport of R123 in normal Caco-2 cell monolayers or drug-treated Caco-2 cell monolayers was further studied. […] The transport buffer containing 5 μM of R123 was added on either the AP or the BL side of the inserts, as described above. […] The concentrations of R123 were immediately analyzed by SpectraMax iD3. The excitation wavelength was set at 485 nm, and the emission wavelength at 535 nm. Papp values across the cell monolayers were calculated according to the equation: Papp = dQ/dt × 1/(A × C0), where dQ/dt represents the rate of drug transport. […] The efflux ratio was calculated using the Papp (BL-AP) to Papp (AP-BL) ratio.

[2] = tested on: Caco-2 cells; experiment: Cytotoxicity in Caco-2 cells, CCK-8 assay; format: cell-based, human; settings: for Cell survival rate%: mean; for cck-8 mean (survival fraction): mean of 6
Description: Caco-2 cells were cultured in 96-well plates for 48 h at a seeding density of 5.0 × 10^3 cells/well before the addition of drugs. […] The final concentration of DMSO was 0.05% (v/v). Experiments were initiated by replacing the culture medium in each well with 100 μL of sample solutions at 37°C in the CO2 incubator. After 48 h of incubation, the medium was removed and 10 μL of CCK-8 reagent in the serum-free medium was added to each well. The plates were then incubated at 37°C for another 2 h. At the end of the incubation period, the plates were quantified by reading the absorbance at 450 nm on a micro-plate multi-detection instrument, SpectraMax iD3 with SoftMax® Pro (Molecular Devices Corporation Sunnyvale, CA, USA). The percentage of cell viability was calculated based on the absorbance measured relative to the absorbance of cells exposed to the negative control.

[3] = in vivo; settings: male, Sprague Dawley, rat, po, 352 mg/kg
Description: (§1) Blood samples were centrifuged at 3500 rpm for 5 min at 4°C. All plasma samples were then stored at -80°C until analysis.
(§2) All samples were stored in a refrigerator at -80°C and thawed at room temperature before processing. A 50 μL aliquot of plasma was added with 5 μL of the standard solution (or acetonitrile) and 100 μL of internal standard solution in turn, vortexed and mixed, then sonicated for 3 min, centrifuged at 14000 rpm for 10 min at low temperature. The supernatant was transferred to an autosampler vial and analyzed by UHPLC-ESI-MS/MS.
(§3) The mobile phase consisted of 0.1% formic acid solution (A) and acetonitrile (B).
(§4) The ESI ionization source was used and detected in MRM mode.
(§5) All data were presented as mean ± SD. Pharmacokinetic parameters including half-life (t1/2), maximum plasma time (Tmax) and concentration (Cmax), area under concentration-time curve (AUC0-t and AUC0-∞), clearance (CL), steady-state volume of distribution (Vz), and mean residence time (MRT) were analyzed by non-compartmental method using DAS Version 2.0 (Chinese Pharmacological Society, Beijing, China). […] The data were analyzed by Student’s t-test for two groups and one-way analysis of variance for multiple groups; p < 0.05 was considered statistically significant.

[4] = male, Sprague Dawley, rat, in vivo, po, 352 mg/kg
Description: as §1, §2, §3, §4, §5

[5] = Stability of the five compounds in SD rat plasma (QC samples, UHPLC-ESI-MS/MS); format: in vitro ADME; settings: for mean measured concentration: rat plasma, mean of 5; for stability, Accuracy (measured versus nominal concentration) / stability, mean ± SD (measured concentration): SD rat plasma, n=5
Description: The method was validated according to the US Food and Drug Administration (FDA) Bioanalytical Method Validation Guidance as follows: [1] specificity was assessed by analyzing blank plasma, blank plasma spiked with standard solutions and rat plasma samples after oral administration. Each calibration curve was plotted using the concentration of the standard solution as the horizontal coordinate and the ratio of analyte to internal standard peak area as the vertical coordinate. The lower limit of quantification (LLOQ) refers to the lowest concentration, which is typically 10 times the signal-to-noise ratio. It has an acceptable accuracy of ± 20% and a precision of less than 20% [3]. Quality Control (QC) samples (low, medium and high concentrations) were prepared for each analyte. Five samples were analyzed at each concentration level and three consecutive batches were determined to calculate the accuracy and precision of the method. Extraction recovery was assessed by the ratio of the average peak area of routinely prepared QC samples (low, medium, and high concentrations) to the post-extraction plasma sample. Likewise, matrix effect was assessed by the ratio of peak areas between post-extraction samples spiked with analytes and mobile phases spiked with the same concentration of analytes.

[6] = Caco-2, concentration 10 μmol/L
[7] = Caco-2, concentration 20 μmol/L
[8] = Caco-2, concentration 40 μmol/L
[9] = Caco-2, concentration 80 μmol/L
[10] = nominal 160 ng/mL, 3 freeze-thaw cycles
[11] = nominal 160 ng/mL, 7 days at -80°C
[12] = nominal 160 ng/mL, Room temperature 24h
[13] = nominal 1000 ng/mL, 3 freeze-thaw cycles
[14] = nominal 1000 ng/mL, 7 days at -80°C
[15] = nominal 1000 ng/mL, Room temperature 24h
[16] = nominal 5000 ng/mL, 3 freeze-thaw cycles
[17] = nominal 5000 ng/mL, 7 days at -80°C
[18] = nominal 5000 ng/mL, Room temperature 24h

SMILES: C=C(C(=O)O)[C@@H]1CC[C@@H](C)[C@@H]2CCC(C)=C[C@@H]21 [AA, Artemisinic acid]
- reduction of R123 transport from the BL side to the AP side [1]: 26.82%
- Cell survival rate%, single replicate ([2]; Caco-2, 5μmol/L): 86.78% and 81.42% and 81.32% and 82.7% and 86.07% and 80.23%
- Cell survival rate%, single replicate ([2]; Caco-2, 10μmol/L): 83.23% and 82.76% and 85.19% and 84.02% and 81.01% (2×)
- Cell survival rate%, single replicate ([2]; Caco-2, 20μmol/L): 82.79% and 80.95% and 80.96% and 82.01% and 83.04% and 83.63%
- Cell survival rate%, single replicate ([2]; Caco-2, 40μmol/L): 79.21% and 80.38% and 82.01% and 81.79% and 85.15% and 82.39%
- Cell survival rate%, single replicate ([2]; Caco-2, 80μmol/L): 81.2% and 78.64% and 82.71% and 80.82% and 78.89% and 79.03%
- cck-8 cell survival as fraction, single replicate ([2]; Caco-2, concentration 5 μmol/L): 0.8678 and 0.8142 and 0.8132 and 0.827 and 0.8607 and 0.8023
- Cell survival rate% ([2]; Caco-2, concentration 5 μmol/L): 83.09%
- cck-8 mean (survival fraction) ([2]; Caco-2, concentration 5 μmol/L): 0.83
- cck-8 cell survival as fraction, single replicate [2, 6]: 0.8323 and 0.8276 and 0.8519 and 0.8402 and 0.8101
- Cell survival rate% [2, 6]: 82.87%
- cck-8 mean (survival fraction) [2, 6]: 0.83
- cck-8 cell survival as fraction, single replicate [2, 7]: 0.8279 and 0.8095 and 0.8096 and 0.8201 and 0.8304 and 0.8363
- Cell survival rate% [2, 7]: 82.23%
- cck-8 mean (survival fraction) [2, 7]: 0.82
- cck-8 cell survival as fraction, single replicate [2, 8]: 0.7921 and 0.8038 and 0.8201 and 0.8179 and 0.8515 and 0.8239
- Cell survival rate% [2, 8]: 81.82%
- cck-8 mean (survival fraction) [2, 8]: 0.82
- cck-8 cell survival as fraction, single replicate [2, 9]: 0.812 and 0.7864 and 0.8271 and 0.8082 and 0.7889 and 0.7903
- Cell survival rate% [2, 9]: 80.22%
- cck-8 mean (survival fraction) [2, 9]: 0.80
- AUC(0-inf) [3]: 23700 ± 4990 ng·h/mL
- AUC(0-t) [3]: 23000 ± 4720 ng·h/mL
- Cmax ([3]; Cmax): 5370 ± 590 ng/mL
- half-life ([3]; t1/2): 4.29 ± 1.37 h
- CL [4]: 0.001 ± 0.001 L/h
- CLz [4]: 24 mL/day/kg
- mean measured concentration ([5]; AA QC 160ng, 3 freeze-thaw cycles): 175.436 ng/mL
- mean measured concentration ([5]; AA QC 160ng, 7 days at -80°C): 168.832 ng/mL
- mean measured concentration ([5]; AA QC 160ng, Room temperature 24h): 151.908 ng/mL
- mean measured concentration ([5]; AA QC 1000ng, 3 freeze-thaw cycles): 947.702 ng/mL
- mean measured concentration ([5]; AA QC 1000ng, 7 days at -80°C): 919.418 ng/mL
- mean measured concentration ([5]; AA QC 1000ng, Room temperature 24h): 955.778 ng/mL
- mean measured concentration ([5]; AA QC 5000ng, 3 freeze-thaw cycles): 4777.45 ng/mL
- mean measured concentration ([5]; AA QC 5000ng, 7 days at -80°C): 4737.9 ng/mL
- mean measured concentration ([5]; AA QC 5000ng, Room temperature 24h): 4689.24 ng/mL
- stability, Accuracy (measured versus nominal concentration) [5, 10]: 109.65%
- stability, mean ± SD (measured concentration) [5, 10]: 175 ± 7.36 ng/mL
- stability, Accuracy (measured versus nominal concentration) [5, 11]: 105.52%
- stability, mean ± SD (measured concentration) [5, 11]: 169 ± 8.62 ng/mL
- stability, Accuracy (measured versus nominal concentration) [5, 12]: 94.94%
- stability, mean ± SD (measured concentration) [5, 12]: 152 ± 6.95 ng/mL
- stability, Accuracy (measured versus nominal concentration) [5, 13]: 94.77%
- stability, mean ± SD (measured concentration) [5, 13]: 948 ± 56.6 ng/mL
- stability, Accuracy (measured versus nominal concentration) [5, 14]: 91.94%
- stability, mean ± SD (measured concentration) [5, 14]: 919 ± 34.8 ng/mL
- stability, Accuracy (measured versus nominal concentration) [5, 15]: 95.58%
- stability, mean ± SD (measured concentration) [5, 15]: 956 ± 68.0 ng/mL
- stability, Accuracy (measured versus nominal concentration) [5, 16]: 95.55%
- stability, mean ± SD (measured concentration) [5, 16]: 4777 ± 82.6 ng/mL
- stability, Accuracy (measured versus nominal concentration) [5, 17]: 94.76%
- stability, mean ± SD (measured concentration) [5, 17]: 4738 ± 174 ng/mL
- stability, Accuracy (measured versus nominal concentration) [5, 18]: 93.78%
- stability, mean ± SD (measured concentration) [5, 18]: 4689 ± 298 ng/mL
